A short description of data set [1]: displacement of a pre-adsorbed FL-BP from CaP-coated culture wells by a different FL-BP. It is filed as binding. Particulars: FIG. 1 Panel A. On the procedure: FIG. 1, Panels A-C, illustrates displacement of an adsorbed fluorescently labeled BP (FL-BP) from a hydroxyapatite surface mimicking bone by a different fluorescently labeled BP. Synthetic bone/dentine (calcium phosphate, CaP)-coated culture wells were pre-treated with either ROX-RIS or 5-FAM-RIS (50 μM) After challenged by serially diluted doses of 5-FAM-RIS or ROX-RIS (from 0 to 50 μM), respectively, Carboxyl-X-Rhodamine (ROX) and carboxyfluorescein (FAM) fluorescence intensities of the CaP-coated wells were measured. Panel A: ROX-RIS in CaP (first bars of each set) remained near the pre-adsorbed 50 μM level until 5 μM or greater concentrations of 5-FAM-RIS challenged. In contrast, 5-FAM-RIS (second bars of each set) was rapidly displaced by concentrations of ROX-RIS as low as 1 μM. Panel B: Pre-adsorbed FAM-RIS was replaced by ROX-RIS between 10 μM to 50 μM. Panel C: The quantitative measurement of FAM and ROX fluorescent signals was conducted by standardized fluorescent biophotonics and a proprietary program (LAS3000, FUJIFILM, Tokyo, Japan).

The test system of data set [2] is Rap1A prenylation. The data set is described as follows: Western blot of Rap1A prenylation in J774 macrophages. Conditions: 10 μM and 100 μM dose. It is filed as cell-based, mouse.
Data set [3] has as its system ZOL-induced mouse BRONJ model. The data set can be described thus: ZOL-induced mouse BRONJ/ONJ model (ZOL IV injection followed by maxillary first molar extraction). It is filed as in vivo. Particulars: for development of ONJ-like lesions at the tooth extraction sites: ZOL 500 μg/kg IV, intra-oral injection one day prior to extraction, 14 days after extraction, FIG. 21; for histology of maxilla at the tooth extraction site: ONJ-like lesion: 2 weeks after extraction, one time oral injection in ZOL-mice, FIG. 20; for development of ONJ-like lesions: FIG. 19C; for ZOL-injected mice with open oral wound: 500 μg/Kg ZOL via tail vein. On the procedure: AF647-ZOL was applied by intra-oral injection or IV injection 1 day prior to tooth extraction. FIG. 16B are images of mouse maxilla and the oral mucosa inflammation and swelling (white dotted lines, left and right panels) with various degrees of jawbone exposure (arrow) at the tooth extraction site of ZOL-treated mice (BRONJ control: n−4). […]
Panel A is a diagram of the experimental time line. Mice treated by IV injection of ZOL (500 μg/kg) received an intra-oral injection of AF647-ZOL, MHDP or ETI (etidronate) one day prior to maxillary 1″ molar extraction. The development of ONJ was evaluated 14 days after tooth extraction.
The C57BL/6J (B6) mice model of ONJ is used. The consistent tissue source in this study is mouse maxillary bone with or without tooth extraction, as well as femurs, mandibles and L4/L5 lumber bones. Tooth extraction animal models for studying wound healing in mice have been well established in our and other laboratories. Systemic bisphosphonate treatment is accomplished by IV injection and the proposed local application of FL-BP is accomplished by intraoral injection to gingival/palatal tissue of mouse maxilla. Mice are subjected to maxillary molar extraction. After anesthesia and vital signs checked, the animal is placed on a bed supporting the isoflurane tubing while keeping the mouth opening. Ophthalmic ointment (bland, e.g., Lacrilube) is applied. The maxillary molar area is wiped with 0.12% Chlorhexidine gluconate solution (Peridex, oral rinse). An autoclaved dental explorer is used as an exodontia elevator after careful reflection of the cervical mucosa to minimize post-extraction discomfort. An autoclaved cotton swab is placed on the extraction socket until the initial blood coagulation is established. Maxillary 1st molar is then extracted unilaterally from so that the remaining untreated side can be utilized for chewing. In our previous experiments, the entire procedure takes about 5-15 minutes. […]
In a preliminary study female B6 mice were injected 500 μg/Kg ZOL (equivalent to 200 μl of 350 μM ZOL) via tail vein and one week later, maxillary left first molar was extracted. […]
Therefore, as schematically shown in FIG. 19B mouse maxillae were treated with ZOL and then either 2 μg of MHDP was orally injected to the site of the molar to be extracted or 100 μg of MHDP was IV injected and the sites of molar extraction of treated mouse maxilla were compared to controls.

The subject of data set [4] is mouse femur trabecular bone. The data set can be described thus: micro CT evaluation of mouse femur trabecular structure (anti-resorptive function in vivo). Conditions: for anti-resorptive effect: vs saline (0.9% NaCl) vehicle. On the procedure: FIG. 19A to FIG. 19C present evidence that certain alkylidene bisphosphonates can be used to displace active BPs in vivo in the mouse model. […] FIG. 19B outlines the protocol for the experiments using MHDP to treat C57B16 mice. An ONJ-like lesion was generated by ZOL IV injection into the mouse, followed by extraction of the maxillary first molar. One day prior to the tooth extraction, a group of mice received intra-oral injection of 2 μg MHDP and another group received IV injection of 100 μg MHDP. FIG. 19C presents images of the mouse maxilla.
This study determines the anti-resorptive function of FL-BP in vivo, as compared to ZOL. Female B6 mice were injected with 50 μM ZOL (n=6), 50 μM FL-BP (n=6) or 0.9% NaCl vehicle solution (control: n=6) via tail vein. Three weeks later, mice were euthanized and femur and L4/L5 were harvested. After fixed in 10% buffered formalin, bone samples were subjected to micro CT analysis. The anti-resorptive function were quantitatively established by the trabecular bone three-dimensional morphometry (e.g., BV/TV, Tb.N, Tb.Th, TbSp). FL-BPs with minimal or no pharmacological BP function are used.
Mice were IV injected with 0.9% NaCl (vehicle solution), ZOL (184 μM×100 μL=5.0 μg/animal) or AF647-ZOL (184 μM×100 μL=22.0 μg/animal) and femurs were harvested 2 weeks after injection. The micro CT data were compared.

Data set [5] in a line: hydroxyapatite (HAP) binding affinity, relative retention times normalized to RIS. Conditions: FIG. 7. On the procedure:
FIG. 7 is a bar graph showing hydroxyapatite (HAP) binding affinity of Zoledronate (ZOL), ROX-RIS, 5-FAM-ZOL, and AF647-ZOL. Relative retention times were normalized to RIS.
Hydroxyapatite assays indicate that the FL-BPs generally retain substantial affinity for bone mineral that reflect the affinity of the BP component and to a lesser extent, the affinity of the conjugated fluorophore. Hydroxyapatite (Macro-Prep® Ceramic hydroxyapatite Type II […]) was obtained from Bio-Rad Laboratories, Inc. Hercules, Calif. Accurately weighed hydroxyapatite powder (1.4-1.6 mg) was suspended in a 4 mL clear vial containing the appropriate volume of assay buffer (0.05% (wt/vol) Tween20, 10 μM EDTA and 100 mM HEPES pH=7.4) for 3 hours. Hydroxyapatite was then incubated with increasing amounts of FAM-BP and ROX-BP (0, 25, 50, 100, 200, and 300 μM). Samples were gently shaken for 3 hours at 37° C. in appropriate volume of assay buffer (0.05% (wt/vol) Tween20, 10 μM EDTA and 100 mM HEPES pH=7.4). Subsequent to the equilibrium period, the vials were centrifuged at 10,000 rpm for 5 minutes to separate the solids and the supernatant. 0.3 mL of the supernatant was collected and the equilibrium solution concentration is measured by using Shimadzu UV-VIS spectrometer. For the calibration series, FL-BP probe standards were prepared by serial dilution from the stock solution with the same isotherm buffer to give the range from 0 to 400 μM. Calibration curves were constructed using standard solutions of the target FL-BPs. Fluorescent emission can also be used to calculate the binding parameters. Nonspecific binding was measured with a similar procedure in the absence of hydroxyapatite as control. Binding parameters (Kd and Bmax, represent the equilibrium dissociate constant and maximum number of binding sites, respectively) were calculated using the PRISM program (Graphpad, USA). The binding parameters of each compound was measured in 5 independent experiments. […]

In data set [6] the test system is mouse maxilla. The data set is described as follows: preliminary study: fluorescent imaging of mouse maxilla after 5-FAM-ZOL IV or ROX-RIS intraoral injection. Type of data set: in vivo. Particulars: single intraoral 25 μl of 50 μM; 2 days after. On the procedure: In a preliminary study female C57B16/J (B6) mice (8 weeks old) received either a single IV injection via tail vein of 200 μl of 350 μM 5-FAM-ZOL (5-FAM-ZOL, #BV111001, BioVinc LLC, Culver City, Calif.) or a single intraoral injection of 25 μl of 50 μM ROX-RIS (5(6)-ROX-RIS, #BV150101, BioVinc LLC, CA) to gingival/palatal tissue at maxillary left first molar (white arrow in FIG. 11). […], mice were euthanized 3 weeks after the IV injection of 5-FAM-ZOL or 2 days after the intraoral injection of ROX-RIS. Skulls (containing maxilla) were harvested and standardized fluorescent biophotonics image was obtained using an excitation wavelength of 460 nm and the 515 nm filter (LAS3000, FUJIFILM Corp).

Where [7] appears, read: IV 184 μM×100 μL, femurs 2 weeks after injection.

Entries after “also recorded” stand apart in the source; their conditions may differ. Bounds are passed on as bounds.

With `O=C(NCC(O)C[n+]1cccc(CC(O)(P(=O)(O)O)P(=O)(O)O)c1)c1ccc(-c2c3ccc(=O)cc-3oc3cc(O)ccc23)c(C(=O)O)c1` (centres unmarked) [5-FAM-RIS], the “concentration of challenging 5-FAM-RIS up to which pre-adsorbed ROX-RIS remained near the pre-adsorbed level” value in data set [1] (CaP wells pre-treated with 50 μM ROX-RIS) is at least 5 µM.

`CC(O)(P(=O)(O)O)P(=O)(O)O` [ETI, ethylene hydroxyl bisphosphonate, reference compound]: the “inhibition of Rap1A prenylation (accumulated unprenylated Rap1A)” value (shortened to “inhibition of Rap1A prenylation”) in data set [2] was “not”. Further, the “development of ONJ-like lesions at the tooth extraction sites” value in data set [3] was “appeared to be prevented”.

Regarding `O=P(O)(O)C(O)P(=O)(O)O` [MHDP, methylene hydroxyl bisphosphonate], in data set [2], the “inhibition of Rap1A prenylation” value is listed as “not”. In addition, in data set [3], the “histology of maxilla at the tooth extraction site: ONJ-like lesion” value is reported as “did not develop an ONJ-like lesion” and the “development of ONJ-like lesions at the tooth extraction sites” value was “appeared to be prevented”. Further, the “development of ONJ-like lesions” value in data set [3] (IV injection of 100 μg one day prior to extraction) was “prevented the development of ONJ-like lesions”. Further, the “development of ONJ-like lesions” value in data set [3] (intra-oral injection of 2 μg one day prior to extraction) was “prevented the development of ONJ-like lesions”. The anti-resorptive effect result in data set [4] (FIG. 19A) was “lack of anti-resorptive activity; also recorded: lack of anti-resorptive effect”.

Turning to `O=C(NCC(O)C[n+]1cccc(CC(O)(P(=O)(O)O)P(=O)(O)O)c1)c1ccc(C2=c3cc4c5c(c3Oc3c2cc2c6c3CCCN6CCC2)CCC[N+]=5CCC4)c(C(=O)O)c1` (centres unmarked) [ROX-RIS], the “influence of the fluorophore on hydroxyapatite affinity” value in data set [5] is “enhancement”. In addition, the “fluorescent signal in palatal bone around the injection site” value in data set [6] was “localized red fluorescent signal”. The “concentration of challenging ROX-RIS that displaced pre-adsorbed 5-FAM-RIS” value in data set [1] (CaP wells pre-treated with 50 μM 5-FAM-RIS) is at least 1 µM.

In the case of `O=P(O)(O)C(O)(Cn1ccnc1)P(=O)(O)O` [ZOL, zoledronate], the “inhibition of Rap1A prenylation” value in data set [2] is recorded as “inhibited Rap1A prenylation”. Also, the “ZOL-injected mice with open oral wound” value in data set [3] (2 weeks of tooth extraction) came out at 100%. For the same compound, in data set [3] (4 weeks of tooth extraction), the “ZOL-injected mice with open oral wound” value was 50%. The “histology of maxilla at the tooth extraction site: ONJ-like lesion” value in data set [3] was “development of an ONJ-like lesion”. Also, in data set [3] (ZOL IV, then maxillary first molar extraction), the “tooth extraction wound healing in ZOL-injected mice” value is “delayed wound healing with gingival swelling and jawbone exposure”. Besides, in data set [4] (FIG. 19A, trabecular bone), the “bone volume over tissue volume (BV/TV)” value is reported as “increased” and the “connectivity density (ConnD)” value is reported as “decreased”. Also, the anti-resorptive effect result in data set [4] (FIG. 19A) is given as “significant anti-resorptive effect”. Also, in data set [4] (setting [7]), the connectivity density entry is “nearly doubled” and the “volume of femur trabecular bone (BV/TV)” value was “nearly doubled”. Also, in data set [4] (IV 184 μM×100 μL, femurs 2 weeks after injection, FIG. 14), the bone structural parameters result was “significantly increased”.

The values are drawn from US11400104B2, “Skeletal removal of bisphosphonates” (The Regents of the University of California, priority 2016, dated 2022).
